Earlier results, collected in patent US20070027110A1, “Double salts of (-)-hydroxycitric acid with an amine and a group II a metal and a process for preparing the same” (priority 2004, published 2007).

Details: free acid form, forming lactone; liquid form unstable during storage

stability: unstable
SMILES: O=C(O)CC(O)(C(=O)O)C(O)C(=O)O (single isomer, unassigned; (-)) [(−)-hydroxycitric acid]
